Assay results published in ChEMBL document CHEMBL1126401, “New potent enkephalin analogs containing trifluoromethylamino acid residues” (Bioorg Med Chem Lett, 1992).
*1 amine or outer side, *2 acyl side, *3 side chain or, on linkers, in order; H or OH if unused. Where a SMILES comes first, the peptide text is derived from it. [ ]: non-standard residue; d: D form. Nva(5,5,5-F3) = N[C@@H](CCC(F)(F)F)C(=O)O; X1 = O=C([C@@H](CCC(F)(F)F)N[*:1])[*:2]; X2 = O=C([C@H](CCCC(F)(F)F)N[*:1])[*:2]; NMeF = CN[C@@H](Cc1ccccc1)C(=O)O

Columns and labels:
Mus musculus = test: In vivo analgesic activity of fluoro-enkephalin analog was determined against the compound at 10E-9 M/mouse; i.c.v.; format: functional
[1] = target: Kappa-type opioid receptor (Cavia porcellus, UniProt P41144); test: Compound was evaluated for its binding affinity against enkephalin kappa receptor using [3H]U-69593 as ligand in guinea pig cerebrum in vitro
Sequence of Kappa-type opioid receptor (P41144 whole entry): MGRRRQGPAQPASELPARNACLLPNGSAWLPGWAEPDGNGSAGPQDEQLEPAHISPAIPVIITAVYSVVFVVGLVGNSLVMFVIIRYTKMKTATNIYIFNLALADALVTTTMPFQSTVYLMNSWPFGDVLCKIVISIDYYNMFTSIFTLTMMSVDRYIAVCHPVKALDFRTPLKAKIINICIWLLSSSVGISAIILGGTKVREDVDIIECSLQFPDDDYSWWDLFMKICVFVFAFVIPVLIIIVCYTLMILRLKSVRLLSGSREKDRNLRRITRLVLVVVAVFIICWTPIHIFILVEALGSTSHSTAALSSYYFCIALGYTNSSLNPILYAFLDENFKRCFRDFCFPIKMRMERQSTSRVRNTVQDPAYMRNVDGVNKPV

Mu-type opioid receptor = Mu-type opioid receptor (Rattus norvegicus, UniProt P33535); test: Compound was evaluated for its binding affinity against enkephalin mu receptor using [3H]PL-017 as ligand in rat cerebrum in vitro
Sequence of Mu-type opioid receptor (P33535 whole entry): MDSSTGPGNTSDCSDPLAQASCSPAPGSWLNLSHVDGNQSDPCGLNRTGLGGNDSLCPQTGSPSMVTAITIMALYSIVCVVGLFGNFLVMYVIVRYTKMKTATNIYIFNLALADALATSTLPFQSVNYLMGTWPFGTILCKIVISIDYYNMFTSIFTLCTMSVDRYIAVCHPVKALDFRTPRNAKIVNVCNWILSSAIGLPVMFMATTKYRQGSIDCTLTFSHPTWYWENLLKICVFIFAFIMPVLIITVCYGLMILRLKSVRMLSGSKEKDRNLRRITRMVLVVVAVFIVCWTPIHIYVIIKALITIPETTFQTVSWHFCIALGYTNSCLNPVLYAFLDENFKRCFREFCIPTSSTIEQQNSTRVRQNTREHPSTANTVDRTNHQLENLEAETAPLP

[2] = target: Delta-type opioid receptor (Rattus norvegicus, UniProt P33533); test: Compound was evaluated for its binding affinity against enkephalin delta receptor using [3H]DPDPE as ligand in rat cerebrum in vitro
Sequence of Delta-type opioid receptor (P33533 whole entry): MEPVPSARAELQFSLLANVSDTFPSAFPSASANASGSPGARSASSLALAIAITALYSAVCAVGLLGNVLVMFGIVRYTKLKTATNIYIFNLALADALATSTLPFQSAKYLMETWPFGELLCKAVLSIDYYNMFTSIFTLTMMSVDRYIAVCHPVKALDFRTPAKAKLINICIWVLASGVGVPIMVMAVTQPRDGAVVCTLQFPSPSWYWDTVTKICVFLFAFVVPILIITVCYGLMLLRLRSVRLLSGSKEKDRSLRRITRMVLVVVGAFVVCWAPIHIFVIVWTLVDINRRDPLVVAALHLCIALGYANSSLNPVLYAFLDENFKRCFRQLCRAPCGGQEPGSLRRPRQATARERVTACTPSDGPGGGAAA

| Structure (SMILES) | ED50 (Mus musculus) | other results |
| --- | --- | --- |
| CSCC[C@H](NC(=O)[C@H](Cc1ccccc1)NC(=O)CNC(=O)CNC(=O)[C@@H](N)Cc1ccc(O)cc1)C(=O)O | 7e-07 M mouse-1 |  |
| CCC[C@@H](NC(=O)[C@@H](N)Cc1ccc(O)cc1)C(=O)NCC(=O)N[C@@H](Cc1ccccc1)C(=O)N[C@@H](CCSC)C(N)=O | 4e-11 M mouse-1 |  |
| CSCC[C@H](NC(=O)[C@H](Cc1ccccc1)NC(=O)[C@H](CCC(F)(F)F)NC(=O)CNC(=O)[C@@H](N)Cc1ccc(O)cc1)C(N)=O (H-YG[Nva(5,5,5-F3)]FM-NH2) | 2.2e-08 M mouse-1 |  |
| CSCC[C@H](NC(=O)[C@H](Cc1ccccc1)NC(=O)[C@H](CCC(F)(F)F)NC(=O)CNC(=O)[C@@H](N)Cc1ccc(O)cc1)C(=O)O (H-YG[Nva(5,5,5-F3)]FM-OH) | 1.4e-07 M mouse-1 |  |
| CSCC[C@H](NC(=O)[C@H](Cc1ccccc1)NC(=O)[C@@H](CCC(F)(F)F)NC(=O)CNC(=O)[C@@H](N)Cc1ccc(O)cc1)C(N)=O (H-YG[X1]FM-NH2) | 1.2e-08 M mouse-1 |  |
| CSCC[C@H](NC(=O)[C@H](Cc1ccccc1)NC(=O)CNC(=O)[C@H](CCC(F)(F)F)NC(=O)[C@@H](N)Cc1ccc(O)cc1)C(N)=O (H-Y[Nva(5,5,5-F3)]GFM-NH2) | 7e-12 M mouse-1 | IC50 [1]: 400 nM; IC50 (Mu-type opioid receptor): 0.5 nM; IC50 [2]: 2 nM |
| CSCC[C@H](NC(=O)[C@H](Cc1ccccc1)N(C)C(=O)CNC(=O)[C@H](CCC(F)(F)F)NC(=O)[C@@H](N)Cc1ccc(O)cc1)C(N)=O (H-Y[Nva(5,5,5-F3)]G[NMeF]M-NH2) | 2e-12 M mouse-1 |  |
| CSCC[C@H](NC(=O)[C@H](Cc1ccccc1)NC(=O)CNC(=O)[C@@H](CCC(F)(F)F)NC(=O)[C@@H](N)Cc1ccc(O)cc1)C(N)=O (H-Y[X1]GFM-NH2) | 2.5e-08 M mouse-1 |  |
| CSCC[C@H](NC(=O)[C@H](Cc1ccccc1)NC(=O)CNC(=O)[C@@H](CCC(F)(F)F)NC(=O)[C@@H](N)Cc1ccc(O)cc1)C(=O)O (H-Y[X1]GFM-OH) | 1.2e-07 M mouse-1 |  |
| CSCC[C@H](NC(=O)[C@H](Cc1ccccc1)NC(=O)CNC(=O)[C@H](CCCC(F)(F)F)NC(=O)[C@@H](N)Cc1ccc(O)cc1)C(N)=O (H-Y[X2]GFM-NH2) | 7e-11 M mouse-1 |  |
| CN1CC[C@]2(C)CC(Cc3ccc(O)cc32)C1 (single isomer, unassigned) [EPTAZOCINE] | 5e-11 M mouse-1 |  |
| CN1CC[C@]23c4c5ccc(O)c4O[C@H]2[C@@H](O)C=C[C@H]3[C@H]1C5.Cl [MORPHINE HYDROCHLORIDE] | 7e-11 M mouse-1 |  |
